# Like-named read-outs stand apart in the source and are kept apart here.
# Experiments:
# SARS-CoV-2 d6-YFP = conditions: read-out: Antiviral mean EC50 based on YFP measurements; SARS-CoV-2 d6-YFP; Caco-2; […]
# Caco-2 cells = test: Neutral Red uptake cell viability assay, Caco-2; conditions: read-out: mean CC50; Caco-2 (Fig 7D)
# EHV-1-GFP = EHV-1-GFP antiviral assay, GFP fluorometry; type: cell-based, equine herpesvirus 1
# MHV-68-Luc = MHV-68-Luc luciferase reporter assay; type: cell-based, murine herpesvirus 68; conditions: Murine herpesvirus, MHV-68-Luc
# in vitro [1] = conditions: African green monkey
# in vitro [2] = conditions: African green monkey; remark: listed apart in the source
# in vitro [3] = conditions: human
# in vitro [4] = conditions: mouse
# HHV-6A-GFP = test: HHV-6A plaque reduction assay in HFFs; conditions: Human betaherpesvirus 6A, read-out: Antiviral mean EC50 based on plaque assay measurements
# [5] = system: Epstein–Barr virus P3HR-1; test: EBV lytic assay in TPA-induced P3HR-1 cells, qPCR; type: cell-based; conditions: human gammaherpesvirus 4, P3HR-1, 240 h, read-out: Antiviral mean EC50 based on qPCR measurements
# [6] = Neutral Red uptake cell viability assay, P3HR-1; conditions: human
smiles,measurement,setting,value
O=c1nc(NO)ccn1[C@@H]1O[C@H](CO)[C@@H](O)[C@H]1O [EIDD-1931],EC50,SARS-CoV-2 d6-YFP,4.1 ± 1.4 µM
same,CC50,Caco-2 cells,> 100 µM
"Nc1nc(O)c2ncn(COC(CO)CO)c2n1 [GCV, ganciclovir]",EC50,EHV-1-GFP,1.3 ± 0.3 µM
same,EC50,EHV-1-GFP; COS-7,0.2 ± 0.1 µM
same,EC50,"EHV-1-GFP; Equus caballus, Vero",0.04 ± 0.05 µM
same,EC50,MHV-68-Luc; HFF,> 50 µM
same,EC50,MHV-68-Luc; MEF,9.4 ± 6.3 µM
same,EC50,MHV-68-Luc; Vero,0.9 ± 0.7 µM
same,CC50 at 4 d,in vitro [1],> 100 µM
same,CC50 at 7 d,in vitro [2],> 100 µM
same,CC50,in vitro [3]; CC50,> 50 µM
same,CC50,in vitro [3]; mean CC50,> 100 µM
same,CC50 at 7 d,in vitro [4],> 100 µM
same,EC50,HHV-6A-GFP,2.5 ± 0.6 µM
"CC(C)OC(=O)[C@H](C)N[P@](=O)(CO[C@H](C)Cn1cnc2c(N)ncnc21)Oc1ccccc1 [TAF, tenofovir alafenamide]",EC50,[5],1.8 µM
same,CC50 at 10 d,[6],> 100 µM

# Source: publication PMC12567398, “New Assay Systems to Characterize the Broad-Spectrum Antiherpesviral and Non-Herpesviral Activity of Cyclin-Dependent Kinase (CDK) 8 Inhibitors” (Pharmaceuticals, 2025)
